In ChEMBL document CHEMBL4507284, “Data for DCP probe BI-1230” (2021):

Legend:
Details in all cases: Compound concentration 10.0 uM
[1] = biological target: Interstitial collagenase (Homo sapiens) (UniProt P03956); experiment: MMP-1 (h) Eurofins-Cerep enzyme and uptake assay
[2] = biological target: Cathepsin B (Homo sapiens) (UniProt P07858); experiment: Cathepsin B (h) Eurofins-Cerep enzyme and uptake assay
[3] = biological target: Stromelysin-1 (Homo sapiens) (UniProt P08254); experiment: MMP-3 (h) Eurofins-Cerep enzyme and uptake assay
Caspase-1 (Homo sapiens) = Caspase-1 (Homo sapiens) (UniProt P29466); experiment: Caspase-1 (h) Eurofins-Cerep enzyme and uptake assay
[4] = biological target: Endothelin-converting enzyme 1 (Homo sapiens) (UniProt P42892); experiment: ECE-1 (h) Eurofins-Cerep enzyme and uptake assay
[5] = biological target: Matrilysin (Homo sapiens) (UniProt P09237); experiment: MMP-7 (h) Eurofins-Cerep enzyme and uptake assay
[6] = biological target: Sodium-dependent dopamine transporter (Homo sapiens) (UniProt Q01959)
[7] = biological target: 5-hydroxytryptamine receptor 7 (Homo sapiens) (UniProt P34969)
[8] = biological target: GABA-A receptor; anion channel (Rattus norvegicus) (UniProt O09028+P15431+P18506+P18508+P19969+P20236+P23574+P23576+P28471+P28473+P30191+P62813+P63079+P63138+Q91ZM7+Q9ES14)

Stromelysin-1 (Homo sapiens), sequence (P08254 100-477 limits assumed): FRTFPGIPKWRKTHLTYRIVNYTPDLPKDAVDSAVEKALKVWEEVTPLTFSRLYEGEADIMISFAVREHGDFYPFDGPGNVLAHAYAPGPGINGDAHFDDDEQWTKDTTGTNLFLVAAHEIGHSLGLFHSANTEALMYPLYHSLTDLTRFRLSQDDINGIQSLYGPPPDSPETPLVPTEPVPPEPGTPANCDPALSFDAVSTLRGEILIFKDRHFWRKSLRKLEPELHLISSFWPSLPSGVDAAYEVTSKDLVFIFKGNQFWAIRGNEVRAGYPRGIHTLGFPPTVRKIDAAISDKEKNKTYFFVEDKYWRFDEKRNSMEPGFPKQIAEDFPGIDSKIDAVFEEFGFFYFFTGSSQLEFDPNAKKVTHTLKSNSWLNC
Caspase-1 (Homo sapiens), sequence (P29466 120-297 limits assumed): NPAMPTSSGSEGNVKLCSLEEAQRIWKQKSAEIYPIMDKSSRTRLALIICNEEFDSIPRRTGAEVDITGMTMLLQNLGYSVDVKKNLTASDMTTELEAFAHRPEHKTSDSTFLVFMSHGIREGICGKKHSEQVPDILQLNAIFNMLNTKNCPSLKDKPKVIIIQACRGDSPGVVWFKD
Caspase-1 (Homo sapiens), sequence (P29466 317-404 limits assumed): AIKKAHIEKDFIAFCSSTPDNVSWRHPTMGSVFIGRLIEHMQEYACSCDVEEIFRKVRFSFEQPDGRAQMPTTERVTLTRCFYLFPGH
Interstitial collagenase (Homo sapiens), sequence (P03956 whole entry): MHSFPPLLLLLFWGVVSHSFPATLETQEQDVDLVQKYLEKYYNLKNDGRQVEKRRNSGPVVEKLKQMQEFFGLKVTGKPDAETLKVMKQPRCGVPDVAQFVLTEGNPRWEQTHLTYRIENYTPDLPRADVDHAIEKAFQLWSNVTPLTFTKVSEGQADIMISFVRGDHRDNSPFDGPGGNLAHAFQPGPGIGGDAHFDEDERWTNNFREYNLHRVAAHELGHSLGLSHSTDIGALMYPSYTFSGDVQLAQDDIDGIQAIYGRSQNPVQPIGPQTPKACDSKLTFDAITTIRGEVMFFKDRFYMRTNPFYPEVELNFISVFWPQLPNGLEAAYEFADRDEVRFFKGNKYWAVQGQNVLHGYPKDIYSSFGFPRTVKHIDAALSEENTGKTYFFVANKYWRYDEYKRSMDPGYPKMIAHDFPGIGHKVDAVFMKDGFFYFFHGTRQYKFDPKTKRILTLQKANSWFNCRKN
Matrilysin (Homo sapiens), sequence (P09237 whole entry): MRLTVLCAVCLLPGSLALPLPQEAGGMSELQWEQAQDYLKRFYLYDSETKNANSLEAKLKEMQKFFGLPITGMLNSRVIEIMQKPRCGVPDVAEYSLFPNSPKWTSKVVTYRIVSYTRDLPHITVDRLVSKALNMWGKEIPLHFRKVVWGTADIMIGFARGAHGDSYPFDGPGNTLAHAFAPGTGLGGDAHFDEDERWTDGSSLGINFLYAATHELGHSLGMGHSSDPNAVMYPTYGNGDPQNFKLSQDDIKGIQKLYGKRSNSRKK
Sodium-dependent dopamine transporter (Homo sapiens), sequence (Q01959 whole entry): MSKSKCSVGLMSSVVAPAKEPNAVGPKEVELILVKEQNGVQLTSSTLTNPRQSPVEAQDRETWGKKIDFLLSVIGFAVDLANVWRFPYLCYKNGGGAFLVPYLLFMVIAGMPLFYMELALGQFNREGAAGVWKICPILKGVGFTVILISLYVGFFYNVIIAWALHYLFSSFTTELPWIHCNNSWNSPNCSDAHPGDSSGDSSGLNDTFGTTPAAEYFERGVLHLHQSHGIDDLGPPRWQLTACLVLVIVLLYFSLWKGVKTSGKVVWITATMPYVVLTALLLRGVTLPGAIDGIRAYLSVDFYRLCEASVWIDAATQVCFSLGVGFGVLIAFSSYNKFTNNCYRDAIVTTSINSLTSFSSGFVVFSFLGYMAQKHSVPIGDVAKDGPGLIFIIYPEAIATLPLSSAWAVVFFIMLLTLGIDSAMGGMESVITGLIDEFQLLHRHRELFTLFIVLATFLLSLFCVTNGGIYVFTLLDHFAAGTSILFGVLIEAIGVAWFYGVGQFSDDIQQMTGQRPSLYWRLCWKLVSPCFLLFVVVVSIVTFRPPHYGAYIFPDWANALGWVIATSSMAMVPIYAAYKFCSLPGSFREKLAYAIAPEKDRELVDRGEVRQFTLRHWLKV
5-hydroxytryptamine receptor 7 (Homo sapiens), sequence (P34969 whole entry): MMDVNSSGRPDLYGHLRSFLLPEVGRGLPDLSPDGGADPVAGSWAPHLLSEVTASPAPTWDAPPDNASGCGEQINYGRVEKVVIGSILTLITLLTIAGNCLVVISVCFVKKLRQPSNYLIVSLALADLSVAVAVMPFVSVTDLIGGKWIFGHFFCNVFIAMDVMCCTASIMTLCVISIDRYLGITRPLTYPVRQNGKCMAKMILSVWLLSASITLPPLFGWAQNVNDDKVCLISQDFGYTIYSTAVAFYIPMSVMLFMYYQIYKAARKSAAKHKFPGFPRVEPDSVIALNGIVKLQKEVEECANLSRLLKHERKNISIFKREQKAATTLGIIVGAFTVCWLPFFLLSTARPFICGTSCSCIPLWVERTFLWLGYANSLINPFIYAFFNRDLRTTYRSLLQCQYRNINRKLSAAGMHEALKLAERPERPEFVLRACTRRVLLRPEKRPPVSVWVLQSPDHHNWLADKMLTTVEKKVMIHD
Endothelin-converting enzyme 1 (Homo sapiens), sequence (P42892 whole entry): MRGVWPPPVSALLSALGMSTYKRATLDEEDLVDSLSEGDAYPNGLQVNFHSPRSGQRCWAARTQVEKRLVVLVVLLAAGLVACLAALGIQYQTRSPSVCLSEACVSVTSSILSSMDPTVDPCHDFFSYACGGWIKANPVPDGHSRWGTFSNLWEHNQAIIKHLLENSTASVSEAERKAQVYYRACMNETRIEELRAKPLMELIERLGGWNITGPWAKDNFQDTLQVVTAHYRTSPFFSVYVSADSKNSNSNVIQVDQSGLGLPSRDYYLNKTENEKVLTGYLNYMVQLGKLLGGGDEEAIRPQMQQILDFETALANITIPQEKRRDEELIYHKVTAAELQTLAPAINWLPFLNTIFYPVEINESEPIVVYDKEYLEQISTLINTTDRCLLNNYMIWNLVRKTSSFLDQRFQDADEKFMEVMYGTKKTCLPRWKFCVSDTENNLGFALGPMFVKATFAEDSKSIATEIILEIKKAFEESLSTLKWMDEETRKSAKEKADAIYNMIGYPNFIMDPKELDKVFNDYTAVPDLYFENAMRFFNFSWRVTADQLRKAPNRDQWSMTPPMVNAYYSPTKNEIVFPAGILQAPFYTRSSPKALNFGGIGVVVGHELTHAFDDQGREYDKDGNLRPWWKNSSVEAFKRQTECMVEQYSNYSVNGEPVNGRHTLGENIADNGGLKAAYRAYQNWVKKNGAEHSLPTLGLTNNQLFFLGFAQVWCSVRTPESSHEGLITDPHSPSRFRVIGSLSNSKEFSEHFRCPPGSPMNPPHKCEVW

Structure (SMILES)	% Inhibition of Control Values [1] [%]	% Inhibition of Control Values [2] [%]	% Inhibition of Control Values [3] [%]	% Inhibition of Control Values (Caspase-1 (Homo sapiens)) [%]	% Inhibition of Control Values [4] [%]	% Inhibition of Control Values [5] [%]	inhibition [6] [%]	inhibition [7] [%]	inhibition [8] [%]
COc1ccc2c(O[C@@H]3C[C@H]4C(=O)N[C@]5(C(=O)O)CC5/C=C\CCCCC[C@H](NC(=O)OC5CCCC5)C(=O)N4C3)cc(-c3csc(NC(=O)C(C)C)n3)nc2c1C (some centres undefined) [BI 1230]	23.1	-1.7	28	-23.1	14.3	23.4	17.4	–	–
O=C(N[C@H]1CCCCC/C=C\C2C[C@@]2(C(=O)O)NC(=O)[C@@H]2C[C@@H](Oc3ccncc3)CN2C1=O)OC1CCCC1 (some centres undefined) [BI 1675]	–	–	–	–	–	–	–	-3.24	8.04
